Reference: patent US9119821B2, “Use of methionine sulfoximine to treat acute liver failure and other diseases caused by an inflammatory cytokine response” (priority 2010, dated 2015)
Where two headings read alike, the source gives them in different places.

How the values were obtained:
glutamine synthetase = biological target: T1, glutamine synthetase (Mus musculus, UniProt P15105); experiment: Glutamine synthetase activity in liver extracts of treated mice; format: in vivo
T1 construct: liver homogenates were prepared from liver tissue excised and immediately homogenized; from tissue; host or cells: mouse liver homogenate supernatant
T1 sequence (P15105 2-373 limits assumed): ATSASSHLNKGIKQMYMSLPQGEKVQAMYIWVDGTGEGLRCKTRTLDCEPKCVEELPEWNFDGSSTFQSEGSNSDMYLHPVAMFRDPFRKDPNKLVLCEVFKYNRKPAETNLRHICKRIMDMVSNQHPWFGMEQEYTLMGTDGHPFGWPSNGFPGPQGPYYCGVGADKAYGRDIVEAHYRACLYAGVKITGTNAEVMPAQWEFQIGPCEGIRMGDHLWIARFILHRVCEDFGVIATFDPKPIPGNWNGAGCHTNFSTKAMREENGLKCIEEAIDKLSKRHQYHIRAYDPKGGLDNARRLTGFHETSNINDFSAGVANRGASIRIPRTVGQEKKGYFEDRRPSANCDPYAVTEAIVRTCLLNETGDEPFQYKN
Method: (§1) Tissue and plasma were collected from male mice, which were divided into two groups. One group was injected with saline three hours prior to LPS/D-GalN injections. The second group was given MSO three hours prior to being injected with LPS/D-GalN. Control mice (t=0) were treated with MSO or saline for 3 hours and then euthanized (not exposed to LPS/D-GalN). After LPS/D-GalN injection at time zero, tissue and plasma samples were collected at one-hour time intervals from 1 to 5 hours.
To analyze enzyme activities liver homogenates were prepared from liver tissue excised and immediately homogenized in ice-cold buffer consisting of 250 mM sucrose, 10 mM Tris and 0.1 mM EGTA with protease inhibitor cocktail (Sigma #P8340). The homogenized tissue was centrifuged at 2375×g for 5 min. The tissue supernatant fraction was frozen on dry ice and stored at −80° C.
Glutamine synthetase was assayed as described by Meister, A. Glutamine synthetase from mammalian tissues. […] The reaction with the substrates glutamine and hydroxylamine was stopped using ferric chloride stop solution (0.37 M FeCl3, 0.67 M HCl, 0.20 M TCA) and the colorimetric product formed—γ-glutamyl hydroxamate—was measured at 535 nm. The absorbance values were converted to activities by comparison to a standard curve of pure glutamyl hydroxamate (a generous gift from Arthur J. Cooper, Department of Biochemistry and Molecular Biology, New York Medical College).

TNF-α = test system: TNF-α
Text: (§2) FIG. 6A, FIG. 6B, and FIG. 6C illustrate ELISA quantitation cytokine levels in plasma from LPS/D-GalN treated mice. The time zero values show the levels of each cytokine in negative control mice, not treated with LPS/D-GalN but injected with either saline (n=7) or MSO (n=7) three hours prior to be killed. […] For each cytokine, open circles represent cytokine levels in plasma isolated from mice pretreated with saline, and open diamonds represent cytokine levels in plasma isolated from mice pretreated with MSO prior to LPS/D-GalN treatment. FIG. 6A illustrates TNF-α levels. FIG. 6B illustrates IFN-γ levels. FIG. 6C illustrates IL-6 levels; and
as §1
(§3) Plasma was obtained by transferring blood to plasma separator tubes containing lithium heparin (BD Microtainer tubes). Plasma samples were immediately frozen on dry ice and stored at −80° C.
(§4) TNF-α, IFN-γ, and IL-6 ELISA kits were obtained from eBioscience, and experiments were performed using the manufacturer's guidelines for 96-well plate experiments. One hundred microliters of plasma was used per well.

IFN-γ = test system: IFN-γ
Text: as §2, §1, §3, §4

IL-6 = conditions: 3 hours after LPS/D-GalN; without MSO peak 401±14 at two hours
Text: as §2, §1, §3, §4

[1] = test system: 40 different mouse cytokines
Method: as §1
For experiments analyzing plasma cytokines, the male mice from the groups described above were anesthetized using Avertin (solution of 15.5 mis of tert-amyl alcohol—Sigma #240486 and 25 g of 2-2-2 tribromoethanol—Sigma #T48402) and blood was collected by cardiac puncture. Plasma was obtained by transferring blood to plasma separator tubes containing lithium heparin (BD Microtainer tubes). Plasma samples were immediately frozen on dry ice and stored at −80° C.
Mouse cytokine array kits (Proteome Profiler Arrays—cat #ARY006) were obtained from R&D Systems and used according to the manufacturer's guidelines. Each array, which consisted of a nitrocellulose membrane spotted with 40 different mouse cytokines, was tested with two hundred microliters of plasma from one animal. Each condition was duplicated—two mice for each group. Control blots were from plasma collected from two untreated mice (not injected with LPS/D-GalN and/or MSO). For untreated and MSO-treated groups, plasma was collected at either 1 hour or 3 hours after LPS/D-GalN administration. The blots were developed using the Immun-Star WesternC Kit (BIO-RAD cat #170-5070) on a BIO-RAD imager. The corresponding Quantity One software of the BIO-RAD imager was used to quantify the signal obtained on the blots.

[2] = one hour after LPS/D-GalN, versus LPS/D-GalN alone
[3] = three hours after LPS/D-GalN, same reduction in LPS/D-GalN animals without MSO

For `CS(=N)(=O)CC[C@H](N)C(=O)O` (some centres unmarked) [MSO, methionine sulfoximine], which “glutamine synthetase activity relative to animals pre-treated with saline” value (glutamine synthetase; liver extracts, 50 mg/kg IP three hours prior to LPS/D-GalN, all time points) is on record?
The value was “less than 10%”.

What about the “inhibition of glutamine synthetase in the liver” value (glutamine synthetase; long term MSO treatment) of the same compound?
Its value is 90%.

And the “plasma TNF-α level throughout the time course” value (TNF-α; 1 to 5 hours after LPS/D-GalN)?
The value was under 200 pg/mL.

And the “plasma TNF-α level, peak, mean ± SEM” value (TNF-α; 1 hour after LPS/D-GalN, saline pretreated 590±91, p<0.001)?
Its value is 112 ± 35 pg/mL.

And the “plasma TNF-α level in control mice” value (TNF-α; t=0, injected three hours previously, not exposed to LPS/D-GalN, n=7)?
The value was “not detectable”.

And the “plasma IFN-γ level” value (IFN-γ; 1 hour after LPS/D-GalN, without MSO 0.84±0.25)?
Its value is 0.19 ± 0.05 pg/mL.

And the “plasma IFN-γ level” value (IFN-γ; 4 hours after LPS/D-GalN, without MSO 41±11, p 0.01)?
The value was 5.0 ± 3.0 pg/mL.

What about the “plasma IL-6 level, peak, mean ± SEM” value (IL-6) of the same compound?
Its value is 325 ± 27 pg/mL.

And the “reduction of IL-6 in plasma” value [1, 2]?
Its value is over 50%.

And the “reduction of TNF-α in plasma” value [1, 2]?
Its value is over 50%.

And the I-TAC in plasma ([1]; three hours after LPS/D-GalN)?
Its I-TAC in plasma is “not detected”.

What about the JE in plasma ([1]; three hours after LPS/D-GalN) of the same compound?
The JE in plasma was “either reduced or not detected”.

What about the KC values ([1]; three hours after LPS/D-GalN) of the same compound?
The KC values was “same as in LPS/D-GalN animals”.

And the M-CSF values ([1]; three hours after LPS/D-GalN)?
The M-CSF values was “same for all three groups”.

And the MCP-5 in plasma ([1]; three hours after LPS/D-GalN)?
Its MCP-5 in plasma is “increased”.

And the MIG in plasma ([1]; three hours after LPS/D-GalN)?
The MIG in plasma was “not detected”.

And the MIP-1a in plasma ([1]; three hours after LPS/D-GalN)?
The MIP-1a in plasma was “either reduced or not detected”.

And the MIP-1b in plasma ([1]; three hours after LPS/D-GalN)?
Its MIP-1b in plasma is “either reduced or not detected”.

And the MIP-2 in plasma ([1]; three hours after LPS/D-GalN)?
The MIP-2 in plasma was “increased”.

What about the RANTES in plasma ([1]; three hours after LPS/D-GalN) of the same compound?
The RANTES in plasma was “either reduced or not detected”.

What about the TIMP-1 values ([1]; three hours after LPS/D-GalN) of the same compound?
Its TIMP-1 values is “reduced to approximately control values”.

What about the “TNF-α induction by LPS/D-GalN” value ([1]; three hours after LPS/D-GalN) of the same compound?
Its value is “abrogated”.

And the “induction of IFN-γ by LPS/D-GalN” value ([1]; three hours after LPS/D-GalN)?
Its value is “abolished”.

And the “induction of IL-1ra by LPS/D-GalN” value ([1]; three hours after LPS/D-GalN)?
The value was “abolished”.

And the “induction of IL-6 by LPS/D-GalN” value ([1]; three hours after LPS/D-GalN)?
Its value is “abolished”.

What about the “induction of IL-16 by LPS/D-GalN” value ([1]; three hours after LPS/D-GalN) of the same compound?
The value was “abolished”.

What about the “induction of IL-23 by LPS/D-GalN” value ([1]; three hours after LPS/D-GalN) of the same compound?
The value was “abolished”.

What about the “reduction of IL-1a level” value ([1]; three hours after LPS/D-GalN) of the same compound?
The value was “more than 50%”.

What about the “reduction of IP-10” value ([1]; three hours after LPS/D-GalN) of the same compound?
The value was “more than 50%”.

What about the “number of elevated cytokines reduced by pretreatment” value ([1]; three hours after LPS/D-GalN, 22 of the 40 cytokines elevated) of the same compound?
Its value is 20.

And the “reduction in C5a” value [1, 3]?
Its value is 10-20%.

What about the “reduction in sICAM” value [1, 3] of the same compound?
Its value is 10-20%.
